Laboratory results from patent US20240245806A1, “TREATMENT OF NEURODEGENERATIVE DISEASE USING CSA- AND INDY-TYPE COMPOUNDS” (BROWN UNIVERSITY, priority 2021, published 2024).
Entries after “also recorded” stand apart in the source; their conditions may differ.

Assays:
[1] = test system: transplant patients; conditions: all age groups above 65; cited from earlier work
[2] = test system: zebrafish larvae; experiment: Acute exposure of 5 dpf zebrafish larvae to modulators of calcineurin signaling, automated analysis of behavior; assay type: in vivo, Danio rerio; conditions: vs DMSO
Description: Zebrafish larvae were treated at 5 dpf with various modulators of calcineurin signaling, starting 3 hours before imaging. The larvae were then imaged for a total of 3 hours using a behavioral assay with various visual and acoustic stimuli (FIG. 6). The behavioral assay started with a 1-hour period without stimuli, followed by 80 minutes with visual stimuli, 10 minutes without visual or acoustic stimuli, and 30 minutes with acoustic stimuli. Values of activity (% move) and position (% up) were averaged in individual larvae during 10-minute periods, for a total of 18 periods. These values were subsequently averaged between larvae in the same treatment group. We examined a total of 10 treatment groups. For clarity, only 3 treatment groups were graphed (FIG. 6), but all 10 treatment groups were analyzed in detail as shown in subsequent figures. […] The assay provides quantitative information on activity, visually-guided behaviors and acoustic startle responses.
To determine if larval zebrafish behavior is affected by modulation of calcineurin signaling, we imaged 5 day-old larvae in the following 10 treatment groups: 10 μM cyclosporine A (CsA), 1 μM tacrolimus (FK506), 5 or 10 μM proINDY, a combination of CsA+5 or 10 μM proINDY, or a combination of FK506+5 or 10 μM proINDY, DMSO as a vehicle control, and 1 μM rapamycin as a control for target specificity. Rapamycin and FK506 are both macrolide immunosuppressants with similar structures, however, rapamycin affects Target of Rapamycin (TOR) signaling instead of calcineurin signaling. Vellanki et al., Front Mol Biosci 7, 588913 (2020). The concentrations of CsA, FK506 and rapamycin were selected based on prior studies in zebrafish embryos and larvae. Clift et al., Behav Brain Res 282, 117-124 (2015). The two concentrations of proINDY, a membrane-permeable form of INDY (inhibitor of DYRK), were selected based on studies in cell lines and Xenopus embryos. Ogawa et al., Nat Commun 1, 86 (2010).
The research project has been conducted in accordance with local and federal guidelines for ethical and humane use of animals and has been reviewed and approved by the Brown University Institutional Animal Care and Use Committee. Zebrafish (Danio rerio) embryos were collected and grown to larval stages as previously described. Thorn et al., Sci Rep 9, 13989 (2019). Adult wild-type zebrafish are maintained at Brown University as a genetically-diverse outbred strain in a mixed male and female population. Zebrafish embryos from 0-3 days post-fertilization (dpf) and zebrafish larvae from 3-5 dpf were maintained at 28.5° C. in 2 L culture trays with egg water, containing 60 mg/L sea salt (Instant Ocean) and 0.25 mg/L methylene blue in deionized water. Embryos and larvae were kept on a 12 hour light/12 hour dark cycle and were randomly assigned to different experimental groups prior to experimental manipulation. The sex of embryos and larvae cannot be determined at such early stages because zebrafish use elusive polygenic factors for sex determination, and both males and females have juvenile ovaries between 2.5 and 4 weeks of development. Zebrafish larvae were imaged at 5 dpf when the larvae display a range of locomotor behaviors and consume nutrients available in the yolk sac. Larvae are approximately 4 mm long at the 5 dpf stage.
Cyclosporine (cyclosporin A, Enzo Life Sciences), FK506 (tacrolimus, Enzo Life Sciences), rapamycin (Santa Cruz Biotechnology) and proINDY (Tocris Bioscience) were diluted in egg water from 1000× stocks dissolved in dimethyl sulfoxide (DMSO). DMSO (1 μl/ml DMSO) was added to the single treatments and the corresponding DMSO concentration was used as a vehicle control for all solutions. Larvae were exposed at 5 dpf to treatment solutions or DMSO for a total of 6 hours. Larvae were first treated in a Petri dish for 2 hours, transferred with the treatment solution to white 96-well ProxiPlates (PerkinElmer, 6006290) for 1 hour, and then imaged in the treatment solution for 3 hours. […]

[3] = test system: zebrafish embryos and larvae; experiment: Developmental exposure (2-3, 3-4 or 4-5 dpf) of zebrafish to modulators of calcineurin signaling, behavior imaged at 5 dpf; assay type: in vivo; conditions: for early activity (first hour): imaged 5 dpf
Description: Zebrafish. Adult wild type zebrafish (Danio rerio) are maintained at Brown University as a genetically-diverse outbred strain in a mixed male and female population. Zebrafish embryos were collected and grown to larval stages as described previously. Thorn et al., Sci Rep 9, 13989 (2019). Embryos from 0-3 days post-fertilization (dpf) and larvae from 3-5 dpf were kept on a 12 hour light/12 hour dark cycle at 28.5° C. in 2 L culture trays with egg water, containing 60 mg/L sea salt (Instant Ocean) and 0.25 mg/L methylene blue in deionized water. Zebrafish embryos and larvae were randomly assigned to different experimental groups prior to experimental manipulation. The sex of embryos and larvae cannot be determined at such early stages because zebrafish use elusive polygenic factors for sex determination, and both males and females have juvenile ovaries between 2.5 and 4 weeks of development. Liew et al., Brief Funct Genomics 13(2), 172-187 (2014). Zebrafish larvae were imaged at 5 dpf when they are approximately 4 mm long, display a range of locomotor behaviors and consume nutrients available in the yolk sac. Clift et al., Zebrafish 11(5), 455-461 (2014).
Pharmacological treatments. Zebrafish embryos and larvae were treated with 10 μM CsA (cyclosporin A, Enzo Life Sciences), 1 μM FK506 (tacrolimus, Enzo Life Sciences), 1 μM rapamycin (Santa Cruz Biotechnology), 5 μM proINDY (Tocris Bioscience) or co-treatments of either 10 μM CsA+5 μM proINDY or 1 μM FK506+5 μM proINDY. […] Clift et al., Behav Brain Res, 282, 117-124 (2015). […] Robinson et al., J Appl Toxicol 37(12), 1438-1447 (2017). […] All administered compounds were diluted in egg water from 1000× stocks dissolved in dimethyl sulfoxide (DMSO). The corresponding DMSO concentration (1 μl DMSO/ml egg water) was used as a vehicle control. Embryos and larvae were treated during one of the following developmental stages: 2-3, 3-4, or 4-5 dpf. The embryos and larvae were treated in 10 cm Petri dishes for 24 hours, rinsed three times with egg water, and then transferred to new Petri dishes with egg water. Larvae that were treated from 4-5 dpf were rinsed and kept in egg water for 3 hours prior to imaging, typically from 10 am to 1 pm. All treatment groups were imaged at 5 dpf in egg water. For imaging, larvae were transferred to white 96-well ProxiPlates (PerkinElmer, 6006290) and were imaged for 3 hours, typically from 1-4 pm (FIG. 12).
Imaging of zebrafish larvae. Zebrafish larvae were imaged in a 384-well imaging system as described previously. Thorn et al., Sci Rep 9, 13989 (2019). Briefly, four 96-well ProxiPlates were placed on a glass stage inside a temperature-controlled cabinet, set at 28.5° C. The upper shelf of the cabinet holds a high-resolution camera (18-megapixel Canon EOS Rebel T6 with an EF-S 55-250 mm f/4.0-5.6 IS zoom lens), connected to a continuous power supply (Canon ACK-E10 AC Adapter) and controlled by a laptop computer. Images are acquired using Canon's Remote Capture software (EOS Utility, version 3), which is included with the camera. Every 6 seconds, the camera acquires a high-resolution image of larvae in the microplates (FIG. 12). Two small speakers (OfficeTec USB Computer Speakers Compact 2.0 System) are located speaker-side down on the glass stage. Speakers were connected by USB to the laptop computer and set to maximum volume (85 dBA).
Behavioral assay. Larval behaviors were imaged for 3 hours, as described previously. Thorn et al., Sci Rep 9, 13989 (2019). […] The PowerPoint started with a light background for 60 minutes without visual or acoustic stimuli, followed by 80 minutes with visual stimuli, 10 minutes without stimuli, and 30 minutes with acoustic stimuli (FIG. 12). Larvae were not exposed to visual stimuli and acoustic stimuli at the same time. The visual stimuli consisted of a series of lines that moved upwards or downwards in the microplates, in a horizontal plane. […]

[4] = 5 dpf acute exposure, 10 μM CsA, 1 μM FK506, 1 μM rapamycin, proINDY

Compound: C=CC[C@@H]1/C=C(\C)C[C@H](C)C[C@H](OC)[C@H]2O[C@@](O)(C(=O)C(=O)N3CCCC[C@H]3C(=O)O[C@H](/C(C)=C/[C@@H]3CC[C@@H](O)[C@H](OC)C3)[C@H](C)[C@@H](O)CC1=O)[C@H](C)C[C@@H]2OC [FK506, tacrolimus]
- development of Alzheimer's disease in treated transplant patients [1]: rarely develops
- optomotor response (OMR) ([2]; 5 dpf acute exposure): decreased optomotor responses
- early activity (first hour of imaging) [2, 4]: increased early larval activity; also recorded: significant increase in both early and late activity
- late activity (period 15) [2, 4]: increased activity; also recorded: significant increase in both early and late activity
- activity ([2]; 5 dpf acute exposure, 10 μM CsA, 1 μM FK506, proINDY 5 or 10 μM): increased activity
- excitability (acoustic stimuli at 1-second intervals) ([2]; 5 dpf acute): increase in excitability; also recorded: increased excitability
- habituation to acoustic stimuli at 1-second intervals ([2]; 5 dpf acute): decreased habituation
- optomotor response to red lines ([2]; 5 dpf acute, proINDY 5 μM): decreased optomotor responses
- startle responses (20-second interval) ([3]; all exposure groups, vs DMSO): decrease startle responses
- OMR Blue ([3]; exposure 2-3 dpf): decrease in OMR Blue
- OMR Green ([3]; exposure 2-3 dpf): decrease in OMR Green
- OMR RGB ([3]; exposure 2-3 dpf): decrease in OMR RGB
- behavioral profile ([3]; exposure 2-3 dpf): hyperactivity, low habituation, and low optomotor responses
- habituation to acoustic stimuli (1 second interval) ([3]; exposure 2-3 dpf): reduced larval habituation
- startle responses (20-second interval) ([3]; exposure 2-3 dpf): strongly reduced
- early activity (first hour) ([3]; exposure 2-3 dpf): hyperactivity
- habituation to acoustic stimuli (1 second interval) ([3]; exposure 3-4 dpf): reduced larval habituation
- late activity (period 15) ([3]; exposure 3-4 dpf): substantial increases in activity
- startle responses (20-second interval) ([3]; exposure 3-4 dpf): reduced
- early activity (first hour) ([3]; exposure 3-4 dpf): hyperactivity
- OMR Fast Red ([3]; exposure 4-5 dpf): decrease in OMR Fast Red
- OMR Green ([3]; exposure 4-5 dpf): decrease in OMR Green
- excitability ([3]; exposure 4-5 dpf): increases in excitability
- habituation to acoustic stimuli (1 second interval) ([3]; exposure 4-5 dpf): increased larval habituation
- late activity (period 15) ([3]; exposure 4-5 dpf): substantial increases in activity
